Experiments:
[1] = target: wild-type rabbit TRPM3 (rTRPM3) (Oryctolagus cuniculus, UniProt G1T6W8); experiment: Whole-cell patch-clamp agonist dose-response, wild-type TRPM3 in tsA cells; assay type: cell-based; settings: WT TRPM3, whole-cell current at +80 mV
[2] = tested on: TRPM3 mutants at the interface between the MHR1/2 domain and the rib helix; experiment: Agonist sensitivity of mutants at the MHR1/2 domain-rib helix interface relative to wild type; assay type: cell-based, rabbit; settings: interface mutants versus wild type, maximum fold
[3] = tested on: TRPM3 CIM0216 binding site mutants; experiment: CIM0216-induced whole-cell currents in CIM0216 binding site mutants; assay type: cell-based, rabbit; settings: whole-cell currents at +140 mV, 22 °C (Fig. 1c)
Excerpt: Figure 1: TRPM3 activation by superagonist CIM0216. a, Structure of TRPM3 in complex with CIM0216, shown in cartoon representation and viewed parallel to the membrane. CIM0216 (green) is fitted into the cryo-EM density map (right panel). One subunit is highlighted in red, and the rib helix from the adjacent subunit is highlighted in cyan. b, Close-up view of the CIM0216 binding site, detailing key interactions. c, Whole-cell currents measured in tsA cells overexpressing wild-type TRPM3 or CIM0216 binding site mutants at 22 °C. […] CIM0216-induced current amplitudes at +140 mV were calculated by subtracting the steady-state current recorded before CIM0216 application from the steady-state current recorded after CIM0216 application. Each point represents a single cell (from left to right, n = 6, 4, 5, 4, 4, 4, 4, 4, 4, 5), with bars indicating the mean. Statistical analysis was performed using one-way ANOVA with Bonferroni’s post hoc test (***P < 0.001). d, Structural comparison of CIM0216-bound activated state (red) and apo resting state (blue), superimposed using the TMD (residues 848–1119). Root-mean-square deviations (r.m.s.d.) are shown for individual domains. Black arrows indicate the approximate direction of domain movements.

[4] = tested on: wild-type TRPM3; experiment: Primidone inhibition of heat-activated whole-cell currents, wild-type TRPM3; assay type: cell-based, rabbit; settings: WT TRPM3, heat-activated whole-cell currents at 37 °C with primidone (Fig. 4d)
[5] = tested on: TRPM3 primidone binding site mutants; experiment: Primidone inhibition of PregS-induced currents in primidone binding site mutants; assay type: cell-based, rabbit; settings: PregS-induced currents with and without primidone, 22 °C (Fig. 4c)

wild-type rabbit TRPM3 (rTRPM3), sequence (G1T6W8 entry or part of it): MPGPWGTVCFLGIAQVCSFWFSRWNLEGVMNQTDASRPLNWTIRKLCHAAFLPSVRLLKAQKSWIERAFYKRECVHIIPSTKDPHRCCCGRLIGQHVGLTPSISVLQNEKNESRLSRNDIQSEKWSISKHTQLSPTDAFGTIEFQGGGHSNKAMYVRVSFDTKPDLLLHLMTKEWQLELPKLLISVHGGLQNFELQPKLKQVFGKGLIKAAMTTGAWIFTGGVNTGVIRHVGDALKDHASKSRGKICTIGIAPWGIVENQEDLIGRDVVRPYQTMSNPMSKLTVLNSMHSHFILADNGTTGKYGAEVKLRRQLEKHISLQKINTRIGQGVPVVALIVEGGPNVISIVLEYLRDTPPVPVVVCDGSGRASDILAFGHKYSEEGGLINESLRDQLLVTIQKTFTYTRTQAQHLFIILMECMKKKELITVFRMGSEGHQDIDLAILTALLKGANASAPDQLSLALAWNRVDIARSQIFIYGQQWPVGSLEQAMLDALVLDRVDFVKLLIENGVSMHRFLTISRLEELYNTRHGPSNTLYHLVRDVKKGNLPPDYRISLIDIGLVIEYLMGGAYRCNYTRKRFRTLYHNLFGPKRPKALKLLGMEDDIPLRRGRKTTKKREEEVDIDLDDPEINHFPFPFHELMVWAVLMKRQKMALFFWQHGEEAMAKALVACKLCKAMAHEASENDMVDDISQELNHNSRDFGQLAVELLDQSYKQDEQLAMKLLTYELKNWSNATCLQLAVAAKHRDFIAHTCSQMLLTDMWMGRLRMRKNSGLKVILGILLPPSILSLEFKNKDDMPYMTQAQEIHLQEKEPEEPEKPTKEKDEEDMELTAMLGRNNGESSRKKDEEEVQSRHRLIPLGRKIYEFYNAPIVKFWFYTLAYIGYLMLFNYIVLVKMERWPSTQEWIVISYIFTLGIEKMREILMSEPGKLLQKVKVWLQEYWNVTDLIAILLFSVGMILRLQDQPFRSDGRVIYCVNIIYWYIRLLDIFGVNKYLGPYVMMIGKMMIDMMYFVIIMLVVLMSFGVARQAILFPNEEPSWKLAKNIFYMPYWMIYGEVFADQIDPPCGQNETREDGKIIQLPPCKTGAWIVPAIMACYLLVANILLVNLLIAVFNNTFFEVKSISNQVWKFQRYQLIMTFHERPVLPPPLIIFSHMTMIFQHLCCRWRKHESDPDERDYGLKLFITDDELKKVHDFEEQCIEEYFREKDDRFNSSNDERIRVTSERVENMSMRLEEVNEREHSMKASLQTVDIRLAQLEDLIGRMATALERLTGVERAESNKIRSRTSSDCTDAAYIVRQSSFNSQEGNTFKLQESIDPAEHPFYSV

EC50 [1] [nM]	Effect of alanine substitutions at key binding residues on the inhibitory effect [5]	Molecule	Higher sensitivity of mutants to agonist in dose-response experiments [2]	Effect of alanine substitutions at key binding residues on CIM0216-evoked currents [3]	Effect on heat-induced channel activation [4]
700	–	Cc1cc(NC(=O)C(c2ccccc2)N2CCCc3ccccc32)no1 (stereo not drawn) [CIM0216]	up to 3 fold	diminished or abolished	–
–	markedly reduced or abolished	CCC1(c2ccccc2)C(=O)NCNC1=O [primidone]	–	–	effectively suppresses heat-induced channel activation
–	–	pregnenolone sulfate [PregS]	up to 13 fold	–	–
